# Measurements as given in patent US20250319140A1, “COMPOSITION” (MEIJI CO., LTD., priority 2019, published 2025).
# Key:
# [1] = test system: propionic acid production in the intestine; assay: Propionic acid concentration in feces of high fat diet-fed mice, measured by HPLC; assay type: in vivo; conditions: male C57BL/6J mice, feces collected at the end day of the test, compared with control group, P <0.05 paired t-test for the combination
# Description: Male, 8-week-old C57BL/6J mice were divided into 5 groups and fed with a normal diet (AIN-93M) (manufactured by Oriental Yeast Co., Ltd.) or a high fat diet (HFD-60) (manufactured by Oriental Yeast Co., Ltd.). The groups fed with a high fat diet were administered with fructo-oligosaccharide (hereinafter, also referred to as “FOS”), a propionic acid bacterium (Propionibacterium freudenreichii ET-3, Accession No. FERM BP-8115, hereinafter also referred to as “P bacterium”), or both FOS and a propionic acid bacterium (hereinafter, also referred to as “FOS+P bacterium”), and bred for 8 weeks. The group fed with the high fat diet, but not administered with FOS and a propionic acid bacterium was defined as a control group. Meioligo™ P (manufactured by Meiji Food Materia Co., Ltd.) was used as FOS, which was incorporated in the high fat diet in an amount of 5% by mass, and administered. […] The body weight during the test period, the fat weight around the testes at the time of dissection, and the propionic acid concentration in feces collected at the end day of the test were measured, and the amount of weight gain was calculated from the body weights at the start and end of the test, and used for evaluation.
# The propionic acid concentration in the feces was measured by HPLC after extracting the propionic acid from the feces. […]
# [2] = Weight gain suppressing effect in mice fed a high fat diet (body weight, weight gain, fat weight around the testes); assay type: in vivo; conditions: male C57BL/6J mice, compared with control group
# Description: Male, 8-week-old C57BL/6J mice were divided into 5 groups and fed with a normal diet (AIN-93M) (manufactured by Oriental Yeast Co., Ltd.) or a high fat diet (HFD-60) (manufactured by Oriental Yeast Co., Ltd.). The groups fed with a high fat diet were administered with fructo-oligosaccharide (hereinafter, also referred to as “FOS”), a propionic acid bacterium (Propionibacterium freudenreichii ET-3, Accession No. FERM BP-8115, hereinafter also referred to as “P bacterium”), or both FOS and a propionic acid bacterium (hereinafter, also referred to as “FOS+P bacterium”), and bred for 8 weeks. The group fed with the high fat diet, but not administered with FOS and a propionic acid bacterium was defined as a control group. Meioligo™ P (manufactured by Meiji Food Materia Co., Ltd.) was used as FOS, which was incorporated in the high fat diet in an amount of 5% by mass, and administered. A bacterial solution (living cells) activated and cultured in GAM bouillon (manufactured by Nissui Pharmaceutical Co., Ltd.) was washed with physiological saline, and then the number of propionic acid bacteria was adjusted to 5×10^9 cfu/mL to prepare a propionic acid bacterium. This bacterial solution was forcibly administered orally at a dose of 0.2 mL once daily every day from the start date to the end date of the test. To the groups not administered with the propionic acid bacterium (normal diet group, control group and FOS-administered group), physiological saline was forcibly administered orally at a dose of 0.2 mL once daily every day from the start date to the end date of the test. The body weight during the test period, the fat weight around the testes at the time of dissection, and the propionic acid concentration in feces collected at the end day of the test were measured, and the amount of weight gain was calculated from the body weights at the start and end of the test, and used for evaluation.
substance,measurement,setting,value
Propionibacterium freudenreichii ET-3 [propionic acid bacterium],propionic acid concentration in the feces,[1],clearly higher than that in the control group
same,body weight,"[2]; high fat diet (HFD-60), from the 6th week on of 8 weeks breeding",lower in the propionic acid bacterium-administered group than those in the control group
same,fat weight around the testes,"[2]; high fat diet, at dissection at end of 8-week test",low
same,amount of weight gain,"[2]; high fat diet, end day of the test (8 weeks) relative to initial body weight",low
